Source: patent US20210255193A1, “LYSINE REACTIVE PROBES AND USES THEREOF” (The Scripps Research Institute, priority 2017, published 2021)

What was measured:
Assay in all cases: direct labeling of recombinantly expressed proteins by gel-based ABPP (WT vs lysine mutant)
Assay type in all cases: binding
FAH = target: T1, FAH (Homo sapiens, UniProt P16930); settings: FAH K241, KR mutant; 10 μM probe, 1 h
T1 construct: expressed in transfected cells; host or cells: HEK 293T
T1 sequence (P16930 1-419): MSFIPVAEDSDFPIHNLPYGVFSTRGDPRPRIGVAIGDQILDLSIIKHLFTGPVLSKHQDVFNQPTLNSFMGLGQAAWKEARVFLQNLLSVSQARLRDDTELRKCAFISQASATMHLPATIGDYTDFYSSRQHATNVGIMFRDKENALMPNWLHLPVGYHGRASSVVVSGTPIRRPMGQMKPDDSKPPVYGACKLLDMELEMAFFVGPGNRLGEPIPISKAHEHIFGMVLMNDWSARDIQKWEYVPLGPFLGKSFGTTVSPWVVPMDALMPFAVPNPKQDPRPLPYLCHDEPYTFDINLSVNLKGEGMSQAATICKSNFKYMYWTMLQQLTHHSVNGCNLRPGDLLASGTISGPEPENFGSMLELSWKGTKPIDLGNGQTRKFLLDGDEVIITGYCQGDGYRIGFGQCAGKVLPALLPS

PNPO = target: T2, PNPO (Homo sapiens, UniProt Q9NVS9); settings: PNPO K100, KR mutant; 10 μM probe, 1 h
T2 construct: Flag; expressed in transfected cells; host or cells: HEK 293T, transient transfection, soluble lysate
T2 sequence (Q9NVS9 1-261): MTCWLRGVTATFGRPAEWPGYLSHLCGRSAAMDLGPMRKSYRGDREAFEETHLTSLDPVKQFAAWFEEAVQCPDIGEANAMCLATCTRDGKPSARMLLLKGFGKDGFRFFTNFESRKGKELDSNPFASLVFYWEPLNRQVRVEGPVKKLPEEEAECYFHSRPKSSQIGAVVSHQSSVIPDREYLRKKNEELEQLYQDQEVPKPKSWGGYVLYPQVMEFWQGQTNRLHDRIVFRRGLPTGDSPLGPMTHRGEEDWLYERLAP

TPMT = target: T3, TPMT (Homo sapiens, UniProt P51580); settings: TPMT K32, KR mutant; 10 μM probe, 1 h
T3 construct: expressed in transfected cells; host or cells: HEK 293T
T3 sequence (P51580 1-245): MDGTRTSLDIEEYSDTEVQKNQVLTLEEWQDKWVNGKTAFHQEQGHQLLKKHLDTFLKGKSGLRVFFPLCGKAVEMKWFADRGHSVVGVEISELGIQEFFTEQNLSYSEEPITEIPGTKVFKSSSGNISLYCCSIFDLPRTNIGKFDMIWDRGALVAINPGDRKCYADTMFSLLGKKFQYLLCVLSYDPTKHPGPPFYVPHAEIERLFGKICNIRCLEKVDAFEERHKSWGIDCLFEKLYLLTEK

In the case of C#CCCC(=O)Oc1c(F)c(F)c(S(=O)(=O)[O-])c(F)c1F.[Na+] [probe 1, reference compound], the “labeling of WT vs mutant protein by probe” value (FAH) is reported as “ND (the WT did not label more than the mutant (<2x difference quantified))”, the “labeling of WT vs mutant protein by probe” value (PNPO) is reported as “HD (the WT labeled more than the mutant (>4x difference quantified))” and the “labeling of WT vs mutant protein by probe” value (TPMT) is reported as “HD (the WT labeled more than the mutant (>4x difference quantified))”.
With C#CCCC(=O)Oc1c(F)c(F)c(F)c(F)c1F [probe 6, Pentafluorophenyl 4-pentynoate] the “labeling of WT vs mutant protein by probe” value (PNPO) was “PD (the WT labeled more than the mutant (>2x difference quantified))” and the “labeling of WT vs mutant protein by probe” value (TPMT) was “ND (the WT did not label more than the mutant (<2x difference quantified))”.
In the case of C#Cc1ccc(C(=O)Oc2c(F)c(F)cc(F)c2F)cc1 [probe 12, 2,3,5,6-Tetrafluorophenyl 4-ethynylbenzoate], the “labeling of WT vs mutant protein by probe” value (FAH) is reported as “PD (the WT labeled more than the mutant (>2x difference quantified))”, the “labeling of WT vs mutant protein by probe” value (PNPO) is reported as “PD (the WT labeled more than the mutant (>2x difference quantified))” and the “labeling of WT vs mutant protein by probe” value (TPMT) is reported as “ND (the WT did not label more than the mutant (<2x difference quantified))”.
For C#Cc1ccc(C(=O)Oc2c(F)c(F)c(F)c(F)c2F)cc1 [probe 13, Pentafluorophenyl 4-ethynylbenzoate], the “labeling of WT vs mutant protein by probe” value (PNPO) was “ND (the WT did not label more than the mutant (<2x difference quantified))” and the “labeling of WT vs mutant protein by probe” value (TPMT) was “ND (the WT did not label more than the mutant (<2x difference quantified))”.
In the case of Cc1cc(C)n2c1C=C1C=CC(CCC(=O)Oc3c(F)c(F)c(S(=O)(=O)[O-])c(F)c3F)=[N+]1[B-]2(F)F.[Na+] [probe 18, reference compound], the “labeling of WT vs mutant protein by probe” value (FAH) is reported as “PD (the WT labeled more than the mutant (>2x difference quantified))”, the “labeling of WT vs mutant protein by probe” value (PNPO) is reported as “PD (the WT labeled more than the mutant (>2x difference quantified))” and the “labeling of WT vs mutant protein by probe” value (TPMT) is reported as “HD (the WT labeled more than the mutant (>4x difference quantified))”.
